Measurements reported in US6858589B2, “Methods of and compositions for potentiating the action of agents active on cell wall sites of the susceptible bacteria” (priority 1996, dated 2005).
Converted amounts (≈) assume the structure as drawn. Read-outs that look alike come from different tables or passages of the source. Values belong to the compound of their own block, whether it stands above or below them.

Legend:
[1] = tested on: blood culture isolate of cMRSA; assay: MIC and MBC for the cMRSA isolate; type: cell-based, Staphylococcus aureus; conditions: mecA positive
Method: The student test was used for statistical analysis with a significant level of 0.05, it was performed using the Sigma Stat 32 program (SPSS Inc 1992-1997).

[2] = tested on: antibiotic resistant strain of Pseudomonas aeruoginosa isolated from a clinical patient; assay: MIC, antibiotic resistant clinical Pseudomonas strain; type: cell-based, Pseudomonas aeruginosa
[3] = tested on: antibiotic resistant strain of Pseudomonas aeruoginosa isolated from a clinical patient; assay: Tobramycin concentration-time profile kill study, resistant clinical strain; type: cell-based, Pseudomonas aeruginosa
Method: The time boundaries for maintained exposures with aminoglycoside may be 1.0-16 hours, while the required maintained concentrations will be a function of the resistance of the organism as determined by the minimum inhibitory concentration (MIC) of the pathogen isolated in culture and time-concentration requirements of the organism(s) being treated.
(§1) The range of aminoglycoside antibiotics was extended to include tobramycin, the bacterial species type was extended from Enterobacteriaceae to Pseudomonacea, and the organism response range broadened to include an antibiotic resistant strain in Pseudomonas studies.
(§2) In contrast, the resistant clinical strain required a peak concentration of 18 mg/l combined with a maintained level of 1 mg/l.

[4] = tested on: Pseudomonas aeruoginosa, ATCC27853; assay: Tobramycin concentration-time profile kill study, reference strain; type: cell-based, Pseudomonas aeruginosa; conditions: 8 mg/l at 1 hour, reducing until 8.5 hr, then fixed 0.8 mg/l for 16 hours
Method: as §1, §2

[5] = tested on: Pseudomonas aeruoginosa, ATCC27853; assay: MIC, Pseudomonas reference strain; type: cell-based, Pseudomonas aeruginosa
E. coli NCTC 10418 = assay: E. coli exposed to constant concentrations of cephazolin alone; type: cell-based, Escherichia coli
Description: In comparative experiments described in the examples herein, a reference strain of Escherichi coli (E. coli NCTC 10418) was exposed to constant concentrations of cephazolin in the culture medium (see FIGS. 1A and IIA). As these concentrations were varied, the growth of the bacterial culture was changed. […] As concentrations in the medium were increased, there was a major decline in numbers and a delay in regrowth.
The organisms in the media were able to maintain their numbers in a reduced state even in the continuing presence of cephazolin. This outcome is due to the exclusion of cephalosporins by porin channels in the outer cell wall and to the action of cephalosporinase which keeps cephazolin levels at the site(s) of action below that required for full bactericidal effect.
The cephalosporin effect reached a maximum when E. coli growth was reduced to 10 colony forming units(cfu)/ml (see FIG. IIB).

[6] = tested on: blood culture isolate of cMRSA; assay: Kill kinetics and regrowth patterns of cMRSA exposed to gentamicin profiles and constant beta-lactam; type: cell-based, Staphylococcus aureus; conditions: for Outcome of exposure: each agent alone
Method: FIGS. 5a and 5b Kill kinetics and regrowth patterns of a clinical isolate of cMRSA.
The CMRSA isolate was cultured in the presence of gentamicin (Delta West, Bentleigh, Australia). An overnight culture of cMRSA in brain heart infusion broth (BHIB) (Oxoid, Bainstoke, England) was diluted to 10^7 CFU/ml in 0.1% peptone water (Oxoid, Bainstoke, England). A 1 ml sample of the 10^7 CFU/ml culture was added to the experimental culture broth, resulting in an initial density of 10^6 CFU/ml. In vitro concentration-time modeling of clinical plasma gentamicin concentration-time profiles assumed linear extrapolation of in vivo data as reported previously.^18 (Bastone et al Antimicrobial Agents and Chemotherapy 37(4): 914-917, 1993). […] Other profiles were constructed by linear extrapolation of these profiles and included 7 and 16 mg/l bolus and infusion profiles. Colony counts were performed at times 0, 0.5, 2.5, 4.5, 6.5, 8.5, 10.5, 24.5 and 48.5 hours for bolus profiles and times 0, 1, 3, 5, 7, 9, 11, 25 and 49 hours for infusion profiles.
In the experiments involving cephazolin the concentration was maintained at 4 mg/l in the BHIB for the entire 48.5 hours. For the experiments involving flucloxacillin the concentration of flucloxacillin was maintained at 2 mg/l for 48.5 hours. Colony counts were performed at times 0, 0,5, 2.5, 4.5, 6.5, 8.5, 10.5, 24.5 and 48.5 hours. […] These included cMRSA in a drug free broth, cMRSA exposed to a bolus profile of gentamicin with a target Cpeak 30 of 6 mg/l only, cMRSA exposed to […] of flucloxacillin only.
All experiments involved six replicates. Gentamicin concentrations were measured at times 0, 0.16, 0.33, 0.5, 2.5, 4.5, 6.5, 8.5, 10.5, 24.5 and 48.5 hours. Gentamicin assay concentrations were determined by fluorescence polarisation immunoassay (AxSYM, Abbot, Ill., U.S.A.) which has a threshold for detection of 0.3 mg/liter. […] (Gibaldi et al, pharmaceutics 2nd edn, 1982).
The blood culture cMRSA isolate was exposed to gentamicin in vitro simulating an in vivo bolus dosing regimen with varying 30 minute post dose concentrations of gentamicin. The same organism was then exposed to gentamicin in vitro simulating an in vivo bolus dosing regime with a 30 minute post dose concentration of 6 mg/l and constant concentration of 4 mg/l of cephazolin or 2 mg/l of flucloxacillin for 48 hours.

[7] = 4 mg/l cephazolin alone throughout

MIC ([1]; Staphylococcus aureus, read-out: MIC): 32 µg/mL (≈ 84.1 µM)
SMILES: COc1cccc(OC)c1C(=O)N[C@@H]1C(=O)N2[C@@H]1SC(C)(C)[C@@H]2C(=O)O [methicillin]
MBC ([1]; Staphylococcus aureus, read-out: MBC): > 32 µg/mL

SMILES: NC[C@H]1O[C@H](O[C@H]2[C@H](O)[C@@H](O[C@H]3O[C@H](CO)[C@@H](O)[C@H](N)[C@H]3O)[C@H](N)C[C@@H]2N)[C@H](N)C[C@@H]1O [tobramycin]
MIC [2]: 2 to 4 µg/mL (≈ 4.28 to 8.56 µM)
Maintained level required ([3]; combined with 18 mg/l peak): 1 mg/L
Peak concentration required ([3]; combined with maintained level): 18 mg/L
Outcome of tobramycin profile [4]: complete kill
MIC [5]: 1 µg/mL (≈ 2.14 µM)

MIC [1]: 32 µg/mL (≈ 70.4 µM)
SMILES: Cc1nnc(SCC2=C(C(=O)O)N3C(=O)[C@@H](NC(=O)Cn4cnnn4)[C@H]3SC2)s1 [cephazolin]
MBC [1]: 32 µg/mL (≈ 70.4 µM)
Outcome of exposure (E. coli NCTC 10418; cephalosporin alone, constant concentrations): not possible to produce a complete kill or eradication
E. coli growth at maximum cephalosporin effect (E. coli NCTC 10418; constant concentrations of cephalosporin alone, up to 250 mg/l): 10 cfu/ml
Growth of the culture (E. coli NCTC 10418; lowest concentration of cephazolin, 1.0 mg/l): delayed in relation to control
Bacterial Count (E. coli NCTC 10418; maintained cephazolin 0.5 mg/L, 0 h): 5.88 ± 0.09 log 10 u/mL
Bacterial Count (E. coli NCTC 10418; maintained cephazolin 0.5 mg/L, 2 h): 7.43 ± 0.28 log 10 u/mL
Bacterial Count (E. coli NCTC 10418; maintained cephazolin 0.5 mg/L, 8 h): 8.67 ± 0.24 log 10 u/mL
Bacterial Count (E. coli NCTC 10418; maintained cephazolin 0.5 mg/L, 24 h): 8.82 ± 0.06 log 10 u/mL
Bacterial Count (E. coli NCTC 10418; maintained cephazolin 1.0 mg/L, 0 h): 5.83 ± 0.29 log 10 u/mL
Bacterial Count (E. coli NCTC 10418; maintained cephazolin 1.0 mg/L, 2 h): 6.21 ± 0.76 log 10 u/mL
Bacterial Count (E. coli NCTC 10418; maintained cephazolin 1.0 mg/L, 8 h): 8.59 ± 0.35 log 10 u/mL
Bacterial Count (E. coli NCTC 10418; maintained cephazolin 1.0 mg/L, 24 h): 8.79 ± 0.05 log 10 u/mL
Bacterial Count (E. coli NCTC 10418; maintained cephazolin 2.0 mg/L, 0 h): 5.88 ± 0.07 log 10 u/mL
Bacterial Count (E. coli NCTC 10418; maintained cephazolin 2.0 mg/L, 2 h): 3.70 ± 0.32 log 10 u/mL
Bacterial Count (E. coli NCTC 10418; maintained cephazolin 2.0 mg/L, 8 h): 4.98 ± 0.34 log 10 u/mL
Bacterial Count (E. coli NCTC 10418; maintained cephazolin 2.0 mg/L, 24 h): 8.79 ± 0.05 log 10 u/mL
Bacterial Count (E. coli NCTC 10418; maintained cephazolin 4.0 mg/L, 0 h): 5.88 ± 0.06 log 10 u/mL
Bacterial Count (E. coli NCTC 10418; maintained cephazolin 4.0 mg/L, 2 h): 3.61 ± 0.22 log 10 u/mL
Bacterial Count (E. coli NCTC 10418; maintained cephazolin 4.0 mg/L, 8 h): 4.38 ± 0.42 log 10 u/mL
Bacterial Count (E. coli NCTC 10418; maintained cephazolin 4.0 mg/L, 24 h): 6.14 ± 0.93 log 10 u/mL
Bacterial Count (E. coli NCTC 10418; maintained cephazolin 12.5 mg/L, 0 h): 5.85 ± 0.14 log 10 u/mL
Bacterial Count (E. coli NCTC 10418; maintained cephazolin 12.5 mg/L, 2 h): 3.11 ± 0.26 log 10 u/mL
Bacterial Count (E. coli NCTC 10418; maintained cephazolin 12.5 mg/L, 8 h): 2.18 ± 0.63 log 10 u/mL
Bacterial Count (E. coli NCTC 10418; maintained cephazolin 12.5 mg/L, 24 h): 4.77 ± 1.89 log 10 u/mL
Bacterial Count (E. coli NCTC 10418; maintained cephazolin 50 mg/L, 0 h): 5.93 ± 0.11 log 10 u/mL
Bacterial Count (E. coli NCTC 10418; maintained cephazolin 50 mg/L, 2 h): 2.17 ± 0.39 log 10 u/mL
Bacterial Count (E. coli NCTC 10418; maintained cephazolin 50 mg/L, 8 h): 1.55 ± 0.93 log 10 u/mL
Bacterial Count (E. coli NCTC 10418; maintained cephazolin 50 mg/L, 24 h): 1.56 ± 1.14 log 10 u/mL
Bacterial Count (E. coli NCTC 10418; maintained cephazolin 75 mg/L, 0 h): 5.82 ± 0.23 log 10 u/mL
Bacterial Count (E. coli NCTC 10418; maintained cephazolin 75 mg/L, 2 h): 2.09 ± 0.29 log 10 u/mL
Bacterial Count (E. coli NCTC 10418; maintained cephazolin 75 mg/L, 8 h): 1.11 ± 0.96 log 10 u/mL
Bacterial Count (E. coli NCTC 10418; maintained cephazolin 75 mg/L, 24 h): 1.05 ± 1.23 log 10 u/mL
Bacterial Count (E. coli NCTC 10418; maintained cephazolin 100 mg/L, 0 h): 5.85 ± 0.08 log 10 u/mL
Bacterial Count (E. coli NCTC 10418; maintained cephazolin 100 mg/L, 2 h): 2.01 ± 0.26 log 10 u/mL
Bacterial Count (E. coli NCTC 10418; maintained cephazolin 100 mg/L, 8 h): 0.86 ± 0.95 log 10 u/mL
Bacterial Count (E. coli NCTC 10418; maintained cephazolin 100 mg/L, 24 h): 0.70 ± 0.78 log 10 u/mL
Bacterial Count (E. coli NCTC 10418; maintained cephazolin 200 mg/L, 0 h): 5.86 ± 0.04 log 10 u/mL
Bacterial Count (E. coli NCTC 10418; maintained cephazolin 200 mg/L, 2 h): 2.16 ± 0.24 log 10 u/mL
Bacterial Count (E. coli NCTC 10418; maintained cephazolin 200 mg/L, 8 h): 0.78 ± 0.87 log 10 u/mL
Bacterial Count (E. coli NCTC 10418; maintained cephazolin 200 mg/L, 24 h): 1.43 ± 0.74 log 10 u/mL
Bacterial Count (E. coli NCTC 10418; maintained cephazolin 250 mg/L, 0 h): 5.81 ± 0.03 log 10 u/mL
Bacterial Count (E. coli NCTC 10418; maintained cephazolin 250 mg/L, 2 h): 1.82 ± 0.44 log 10 u/mL
Bacterial Count (E. coli NCTC 10418; maintained cephazolin 250 mg/L, 8 h): 1.22 ± 0.96 log 10 u/mL
Bacterial Count (E. coli NCTC 10418; maintained cephazolin 250 mg/L, 24 h): 1.61 ± 0.86 log 10 u/mL
Time at which early bactericidal effect was evident [6, 7]: ≤ 2.5 h
Time at which regrowth was evident [6, 7]: 24.5 h
Outcome of exposure [6]: complete kill or eradication was not achieved

SMILES: Cc1onc(-c2c(F)cccc2Cl)c1C(=O)N[C@@H]1C(=O)N2[C@@H]1SC(C)(C)[C@@H]2C(=O)O [flucloxacillin]
Outcome of exposure [6]: complete kill or eradication was not achieved
